Where two headings read alike, the source gives them in different places.
Columns and labels:
[1] = target: human TYK2 (JH2domain-pseudokinase) (Homo sapiens (Human), UniProt P29597); assay: TYK2 JH2 Domain Binding Assay (KINOMEscan)
Outline: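 Kds, run in duplicate, came from Hill fits (slope fixed at −1) of an 11-point 3-fold dilution series starting at 30,000 nM. Bead-retained TYK2 JH2 (aa G556–D888)–NFkB DBD fusion, DNA-tagged and expressed in HEK293 cells, was read by qPCR after 1 h room-temperature binding in 0.9% DMSO.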

[2] = target: Tyk2 kinase domain (DH1) (Homo sapiens (Human), UniProt P29597); assay: Tyk2 Radioactive Kinase Assay; format: biochemical; settings: for inhibition at 10 µM: read-out: Tyk2 JH1% Inhibition @ 10 μM
Outline: (§1)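 Each kinase domain is incubated with test compound at 10 μM. Activity is then measured radiometrically and expressed as percent inhibition relative to uninhibited enzyme.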

[3] = target: JAK2 kinase domain (JH1) (Homo sapiens (Human), UniProt O60674); assay: JAK2 Radioactive Kinase Assay; format: biochemical; settings: for inhibition at 10 µM: read-out: JAK2 JH1% Inhibition @ 10 μM
Outline: as §1

Tyk2 kinase domain (DH1), sequence (P29597 897-1176): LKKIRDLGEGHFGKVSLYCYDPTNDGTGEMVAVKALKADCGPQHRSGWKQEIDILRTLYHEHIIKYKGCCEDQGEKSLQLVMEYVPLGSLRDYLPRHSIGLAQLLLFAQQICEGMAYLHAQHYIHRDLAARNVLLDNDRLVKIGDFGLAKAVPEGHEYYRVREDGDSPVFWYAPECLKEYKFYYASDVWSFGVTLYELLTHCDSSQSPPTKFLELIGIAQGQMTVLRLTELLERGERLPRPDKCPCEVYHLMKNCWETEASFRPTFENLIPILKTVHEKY
JAK2 kinase domain (JH1), sequence (O60674 849-1124): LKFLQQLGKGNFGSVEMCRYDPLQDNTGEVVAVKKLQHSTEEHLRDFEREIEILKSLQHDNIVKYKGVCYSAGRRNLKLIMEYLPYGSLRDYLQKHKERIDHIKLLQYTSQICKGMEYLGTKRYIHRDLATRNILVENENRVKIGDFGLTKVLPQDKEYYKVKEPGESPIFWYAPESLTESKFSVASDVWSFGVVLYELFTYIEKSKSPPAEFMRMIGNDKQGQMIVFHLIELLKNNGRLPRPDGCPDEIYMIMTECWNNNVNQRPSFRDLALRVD
human TYK2 (JH2domain-pseudokinase), sequence (P29597 556-888): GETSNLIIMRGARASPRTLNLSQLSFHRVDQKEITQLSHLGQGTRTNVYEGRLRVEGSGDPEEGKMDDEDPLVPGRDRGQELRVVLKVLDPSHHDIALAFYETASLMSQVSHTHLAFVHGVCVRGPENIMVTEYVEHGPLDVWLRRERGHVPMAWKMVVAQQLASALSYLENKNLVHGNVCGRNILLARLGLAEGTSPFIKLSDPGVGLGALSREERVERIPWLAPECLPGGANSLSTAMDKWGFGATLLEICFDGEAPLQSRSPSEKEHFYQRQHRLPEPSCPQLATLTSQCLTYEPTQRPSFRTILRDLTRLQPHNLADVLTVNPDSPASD

Row | SMILES | Kd [1] | inhibition at 10 µM ([2]; compound at 10 μM, ATP 10 μM) | inhibition at 10 µM ([3]; compound at 10 μM, ATP 10 μM) | inhibition at 10 µM ([2]; 10 μM compound, 10 μM ATP) | inhibition at 10 µM ([3]; 10 μM compound, 10 μM ATP) | Tyk2 JH1% Inhibition @ 10 μM ([2]; compound at 10 μM, ATP 10 μM) | JAK2 JH1% Inhibition @ 10 μM ([3]; compound at 10 μM, ATP 10 μM)
1 | CNc1cc(Nc2cccn(-c3ccccn3)c2=O)nc2c(C(=O)N[C@H]3CC[C@@H]3O)cnn12 [I-705] | < 0.2 nM | < 50% | < 50% | – | – | – | –
2 | CNc1cc(Nc2cccn([C@H]3CCCOC3)c2=O)nc2c(C(=O)N[C@H]3COC[C@H]3O)cnn12 [I-753] | 0.2 to 1 nM | < 50% | < 50% | – | – | – | –
3 | CNc1cc(Nc2cccn([C@H]3[C@@H]4COC[C@@H]43)c2=O)nc2c(C(=O)NC3CC3)cnn12 [I-810] | < 0.2 nM | – | – | < 50% | < 50% | – | –
4 | CNc1cc(Nc2cccn(C3CCOCC3)c2=O)nc2c(C(=O)N[C@@H]3CC[C@@H]3O)cnn12 [I-556] | < 0.2 nM | < 50% | < 50% | – | – | – | –
5 | CNc1cc(Nc2cc(Cl)cnc2OC(C)C)nc2c(C(=O)NC3CCC3)cnn12 [I-149] | 1 to 10 nM | < 50% | < 50% | – | – | – | –
6 | CNc1cc(Nc2cccn([C@H]3CCCOC3)c2=O)nc2c(C(=O)NCC(C)(C)CO)cnn12 [I-599] | < 0.2 nM | < 50% | < 50% | – | – | – | –
7 | CNc1cc(Nc2cccn(-c3cccc(C)n3)c2=O)nc2c(C(=O)NC3CC3)cnn12 [I-237] | < 0.2 nM | < 50% | < 50% | – | – | – | –
8 | CNc1cc(Nc2cccn(CCOC)c2=O)nc2c(C(=O)NC3CC3)cnn12 [I-267] | < 0.2 nM | < 50% | < 50% | – | – | – | –
9 | CNc1cc(Nc2cccn([C@H]3CCN(C)CC3(F)F)c2=O)nc2c(C(=O)NC3CC3)cnn12 [I-823] | 0.2 to 1 nM | – | – | < 50% | < 50% | – | –
10 | CN(C)C(=O)c1cnc(-n2cccc(Nc3cc(N)n4ncc(C(N)=O)c4n3)c2=O)cn1 [I-38] | 0.2 to 1 nM | < 50% | < 50% | – | – | – | –
11 | CNc1cc(Nc2cc(C)cnc2OCCOC)nc2c(C(=O)N[C@H]3C[C@H]3F)cnn12 [I-280] | < 0.2 nM | < 50% | < 50% | – | – | – | –
12 | CNc1cc(-c2cn(C3CC3)c3ncccc23)nc2c(C(=O)N[C@H]3CC[C@H]3O)cnn12 [I-1080, 5-(1-cyclopropyl-1H-pyrrolo[2,3-b]pyridin-3-yl)-N-((1S,2R)-2-hydroxycyclobutyl)-7-(methylamino)pyrazolo[1,5-a]pyrimidine-3-carboxamide] | < 0.2 nM | – | – | < 50% | < 50% | – | –
13 | CNc1cc(Nc2cccn(-c3cnn(C)c3)c2=O)nc2c(C(=O)NC[C@H](C)CO)cnn12 [I-668] | < 0.2 nM | < 50% | < 50% | – | – | – | –
14 | CNc1cc(Nc2cccn(-c3nccs3)c2=O)nc2c(C(=O)NC3CCC3)cnn12 [I-242] | < 0.2 nM | < 50% | < 50% | – | – | – | –
15 | CNc1cc(Nc2cccc(N3CC(O)C3)n2)nc2c(C(=O)N[C@@H]3C[C@@H]3F)cnn12 [I-757] | < 0.2 nM | < 50% | < 50% | – | – | – | –
16 | CNc1cc(Nc2cc(F)cn([C@H]3CCCOC3)c2=O)nc2c(C(=O)NC3CC3)cnn12 [I-534] | 0.2 to 1 nM | < 50% | < 50% | – | – | – | –
17 | CNc1cc(Nc2cc(Cl)cn([C@@H]3CCCOC3)c2=O)nc2c(C(=O)N[C@H]3[C@@H]4COC[C@@H]43)cnn12 [I-799] | 0.2 to 1 nM | < 50% | < 50% | – | – | – | –
18 | CNc1cc(Nc2cccn(C3CCCCC3)c2=O)nc2c(C(=O)N[C@H]3CC[C@H]3O)cnn12 [I-942] | < 0.2 nM | – | – | < 50% | < 50% | – | –
19 | [2H]C([2H])([2H])Oc1ncccc1Nc1cc(NC)n2ncc(C(=O)NCCC(C)(C)O)c2n1 [I-421, N-(3-hydroxy-3-methylbutyl)-5-((2-(methoxy-d3)pyridin-3-yl)amino)-7-(methylamino)pyrazolo[1,5-a]pyrimidine-3-carboxamide] | 0.2 to 1 nM | < 50% | < 50% | – | – | – | –

Row | SMILES | Kd [1] | inhibition at 10 µM ([2]; compound at 10 μM, ATP 10 μM) | inhibition at 10 µM ([3]; compound at 10 μM, ATP 10 μM) | inhibition at 10 µM ([2]; 10 μM compound, 10 μM ATP) | inhibition at 10 µM ([3]; 10 μM compound, 10 μM ATP) | Tyk2 JH1% Inhibition @ 10 μM ([2]; compound at 10 μM, ATP 10 μM) | JAK2 JH1% Inhibition @ 10 μM ([3]; compound at 10 μM, ATP 10 μM)
20 | CNc1cc(Nc2cccnc2OC2CC2)nc2c(C(=O)N[C@@H]3CC[C@H]3O)cnn12 [I-398] | 0.2 to 1 nM | < 50% | < 50% | – | – | – | –
21 | CNc1cc(-c2nn(CCN3CCOCC3)c3ncccc23)nc2c(C(=O)N[C@H]3C[C@H]3F)cnn12 [I-456] | 1 to 10 nM | < 50% | < 50% | – | – | – | –
22 | CNc1cc(Nc2cccn(-c3cc(C)nn3C)c2=O)nc2c(C(=O)NC3CC3)cnn12 [I-340] | 0.2 to 1 nM | < 50% | < 50% | – | – | – | –
23 | CNc1cc(Nc2cccn([C@H]3CCCC[C@H]3OC)c2=O)nc2c(C(=O)NCC(C)(C)CO)cnn12 [I-1046] | < 0.2 nM | – | – | < 50% | < 50% | – | –
24 | CNc1cc(Nc2cccn(-c3ccc(C(=O)N4CCCC4)cn3)c2=O)nc2c(C(=O)NC3CC3)cnn12 [I-129] | < 0.2 nM | < 50% | < 50% | – | – | – | –
25 | CNc1cc(Nc2cc(F)cn(-c3nn(C)cc3C)c2=O)nc2c(C(=O)N[C@@H]3C[C@@H]3F)cnn12 [I-416] | > 10 nM | < 50% | < 50% | – | – | – | –
26 | CNc1cc(Nc2cccn([C@H]3CCN(C)C[C@H]3F)c2=O)nc2c(C(=O)NC3CC3)cnn12 [I-687] | 0.2 to 1 nM | – | – | – | – | A (percent inhibition at 10 μM lower than 50) | A (percent inhibition at 10 μM lower than 50)
27 | CNc1cc(Nc2cc(Cl)cn(C3CCOCC3)c2=O)nc2c(C(=O)N[C@@H]3CC[C@@H]3O)cnn12 [I-713] | < 0.2 nM | < 50% | < 50% | – | – | – | –
28 | CNc1cc(Nc2cccn([C@@H]3CCN(CCF)C3)c2=O)nc2c(C(=O)N[C@@H]3C[C@@H]3F)cnn12 [I-935] | < 0.2 nM | – | – | < 50% | < 50% | – | –
29 | CNc1cc(Nc2cccn([C@@H]3C[C@H]3F)c2=O)nc2c(C(=O)N[C@H]3CC[C@H]3O)cnn12 [I-1089] | < 0.2 nM | – | – | < 50% | < 50% | – | –
30 | Cc1cc(-n2cccc(Nc3cc(N)n4ncc(C(N)=O)c4n3)c2=O)no1 [I-64] | 0.2 to 1 nM | < 50% | < 50% | – | – | – | –
31 | CNc1cc(Nc2cccn([C@H]3CCN(CCC#N)C3)c2=O)nc2c(C(=O)NC3CC3)cnn12 [I-1011] | 0.2 to 1 nM | – | – | < 50% | < 50% | – | –
32 | CNc1cc(Nc2cccn([C@H]3CCC[C@@H]3OC)c2=O)nc2c(C(=O)N[C@@H]3C[C@@H]3F)cnn12 [I-485] | 0.2 to 1 nM | – | – | – | – | A (percent inhibition at 10 μM lower than 50) | A (percent inhibition at 10 μM lower than 50)
33 | CNc1cc(Nc2cccc([C@@H]3CCCOC3)n2)nc2c(C(=O)NCC(C)(C)CO)cnn12 [I-580] | < 0.2 nM | < 50% | < 50% | – | – | – | –
34 | CNc1cc(Nc2cccnc2OC)nc2c(C(=O)NC3COC3)cnn12 [I-83] | > 10 nM | < 50% | < 50% | – | – | – | –
35 | CNc1cc(-c2nn([C@@H]3CCOC3)c3ncccc23)nc2c(C(=O)N[C@@H]3C[C@@H]3F)cnn12 [I-517] | 0.2 to 1 nM | < 50% | < 50% | – | – | – | –
36 | CNc1cc(Nc2ccnn(-c3ccc(F)cc3)c2=O)nc2c(C(N)=O)cnn12 [I-69] | 0.2 to 1 nM | < 50% | < 50% | – | – | – | –
37 | CNc1cc(Nc2cccn([C@@H]3CCC[C@@H](O)C3)c2=O)nc2c(C(=O)N[C@@H]3CC[C@H]3OC)cnn12 [I-1130] | < 0.2 nM | – | – | < 50% | < 50% | – | –
38 | NC(=O)c1cnn2c(N)cc(Nc3cccc(N4CCCC4=O)n3)nc12 [I-58] | < 0.2 nM | < 50% | 50 to 70% | – | – | – | –
